{"source": "ChEMBL document CHEMBL4184210", "about": "“Optimization of novel monobactams with activity against carbapenem-resistant Enterobacteriaceae - Identification of LYS228” (Bioorg Med Chem Lett, 2018)", "key": {"Escherichia coli [1]": {"tested_on": "Escherichia coli", "assay": "Antimicrobial activity against Escherichia coli expressing beta-lactamase VEB-1 by CLSI broth microdilution method", "assay_type": "functional"}, "Escherichia coli [2]": {"tested_on": "Escherichia coli", "assay": "Antimicrobial activity against Escherichia coli expressing beta-lactamase NDM-1 by CLSI broth microdilution method", "assay_type": "functional"}, "Escherichia coli [3]": {"tested_on": "Escherichia coli", "assay": "Antimicrobial activity against Escherichia coli expressing beta-lactamase NDM-5 by CLSI broth microdilution method", "assay_type": "functional"}, "[4]": {"assay": "Chemical stability in pH 7.4 potassium phosphate buffer assessed as half life for compound hydrolysis at 37 degC by UPLC and mass spectrometry", "assay_type": "physicochemical"}, "Enterobacteriaceae": {"tested_on": "Enterobacteriaceae", "assay": "Antimicrobial activity against ESBL, KPC and MBL producing Enterobacteriaceae by CLSI broth microdilution method", "assay_type": "functional"}, "Pseudomonas aeruginosa [5]": {"tested_on": "Pseudomonas aeruginosa", "assay": "Antimicrobial activity against Pseudomonas aeruginosa ATCC 27853 by CLSI broth microdilution method", "assay_type": "functional"}, "Pseudomonas aeruginosa [6]": {"tested_on": "Pseudomonas aeruginosa", "assay": "Antimicrobial activity against Pseudomonas aeruginosa expressing delta-mexB/delta-mexXY/delta-mexCD and delta-ampC mutant by CLSI broth microdilution method", "assay_type": "functional"}, "Pseudomonas aeruginosa [7]": {"tested_on": "Pseudomonas aeruginosa", "assay": "Antimicrobial activity against Pseudomonas aeruginosa expressing nalB/delta-mexXY/delta-mexCDoprJ/delta-ampC by CLSI broth microdilution method", "assay_type": "functional"}, "Escherichia coli [8]": {"tested_on": "Escherichia coli", "assay": "microbe, parasite or virus in culture", "description": "Antimicrobial activity against wild type Escherichia coli by CLSI broth microdilution method"}, "Escherichia coli [9]": {"tested_on": "Escherichia coli", "assay": "microbe, parasite or virus in culture", "remark": "listed apart in the source", "description": "Antimicrobial activity against Escherichia coli expressing beta-lactamase CTXM-3 by CLSI broth microdilution method"}, "Escherichia coli [10]": {"tested_on": "Escherichia coli", "assay": "microbe, parasite or virus in culture", "remark": "listed apart in the source", "description": "Antimicrobial activity against Escherichia coli expressing beta-lactamase CTXM-15 by CLSI broth microdilution method"}, "Escherichia coli [11]": {"tested_on": "Escherichia coli", "assay": "microbe, parasite or virus in culture", "remark": "listed apart in the source", "description": "Antimicrobial activity against Escherichia coli expressing beta-lactamase GES-1 by CLSI broth microdilution method"}, "Escherichia coli [12]": {"tested_on": "Escherichia coli", "assay": "microbe, parasite or virus in culture", "remark": "listed apart in the source", "description": "Antimicrobial activity against Escherichia coli expressing beta-lactamase IMI-1 by CLSI broth microdilution method"}, "Escherichia coli [13]": {"tested_on": "Escherichia coli", "assay": "microbe, parasite or virus in culture", "remark": "listed apart in the source", "description": "Antimicrobial activity against Escherichia coli expressing beta-lactamase KPC-3 by CLSI broth microdilution method"}, "Escherichia coli [14]": {"tested_on": "Escherichia coli", "assay": "microbe, parasite or virus in culture", "remark": "listed apart in the source", "description": "Antimicrobial activity against Escherichia coli expressing beta-lactamase KPC-4 by CLSI broth microdilution method"}, "Escherichia coli [15]": {"tested_on": "Escherichia coli", "assay": "microbe, parasite or virus in culture", "remark": "listed apart in the source", "description": "Antimicrobial activity against Escherichia coli expressing beta-lactamase KPC-8 by CLSI broth microdilution method"}, "Escherichia coli [16]": {"tested_on": "Escherichia coli", "assay": "microbe, parasite or virus in culture", "remark": "listed apart in the source", "description": "Antimicrobial activity against Escherichia coli expressing beta-lactamase PER-1 by CLSI broth microdilution method"}, "Escherichia coli [17]": {"tested_on": "Escherichia coli", "assay": "microbe, parasite or virus in culture", "remark": "listed apart in the source", "description": "Antimicrobial activity against Escherichia coli expressing beta-lactamase PER-4 by CLSI broth microdilution method"}, "Escherichia coli [18]": {"tested_on": "Escherichia coli", "assay": "microbe, parasite or virus in culture", "remark": "listed apart in the source", "description": "Antimicrobial activity against Escherichia coli expressing beta-lactamase SHV-12 by CLSI broth microdilution method"}, "Escherichia coli [19]": {"tested_on": "Escherichia coli", "assay": "microbe, parasite or virus in culture", "remark": "listed apart in the source", "description": "Antimicrobial activity against Escherichia coli expressing beta-lactamase VEB-4 by CLSI broth microdilution method"}, "Escherichia coli [20]": {"tested_on": "Escherichia coli", "assay": "microbe, parasite or virus in culture", "remark": "listed apart in the source", "description": "Antimicrobial activity against Escherichia coli expressing beta-lactamase VEB-7 by CLSI broth microdilution method"}, "Escherichia coli [21]": {"tested_on": "Escherichia coli", "assay": "microbe, parasite or virus in culture", "remark": "listed apart in the source", "description": "Antimicrobial activity against Escherichia coli expressing beta-lactamase TEM-47 by CLSI broth microdilution method"}, "Escherichia coli [22]": {"tested_on": "Escherichia coli", "assay": "microbe, parasite or virus in culture", "remark": "listed apart in the source", "description": "Antimicrobial activity against Escherichia coli expressing beta-lactamase GIM-1 by CLSI broth microdilution method"}, "Escherichia coli [23]": {"tested_on": "Escherichia coli", "assay": "microbe, parasite or virus in culture", "remark": "listed apart in the source", "description": "Antimicrobial activity against Escherichia coli expressing beta-lactamase SPM-1 by CLSI broth microdilution method"}, "Escherichia coli [24]": {"tested_on": "Escherichia coli", "assay": "microbe, parasite or virus in culture", "remark": "listed apart in the source", "description": "Antimicrobial activity against Escherichia coli expressing beta-lactamase VIM-1 by CLSI broth microdilution method"}, "Escherichia coli [25]": {"tested_on": "Escherichia coli", "assay": "microbe, parasite or virus in culture", "remark": "listed apart in the source", "description": "Antimicrobial activity against Escherichia coli expressing beta-lactamase AmpC by CLSI broth microdilution method"}, "Escherichia coli [26]": {"tested_on": "Escherichia coli", "assay": "microbe, parasite or virus in culture", "remark": "listed apart in the source", "description": "Antimicrobial activity against Escherichia coli expressing beta-lactamase DHA by CLSI broth microdilution method"}, "Escherichia coli [27]": {"tested_on": "Escherichia coli", "assay": "microbe, parasite or virus in culture", "remark": "listed apart in the source", "description": "Antimicrobial activity against Escherichia coli expressing beta-lactamase CMY-2 by CLSI broth microdilution method"}, "Escherichia coli [28]": {"tested_on": "Escherichia coli", "assay": "microbe, parasite or virus in culture", "remark": "listed apart in the source", "description": "Antimicrobial activity against Escherichia coli expressing beta-lactamase MIR-1 by CLSI broth microdilution method"}, "Escherichia coli [29]": {"tested_on": "Escherichia coli", "assay": "microbe, parasite or virus in culture", "remark": "listed apart in the source", "description": "Antimicrobial activity against Escherichia coli expressing beta-lactamase Oxa-18 by CLSI broth microdilution method"}, "Escherichia coli [30]": {"tested_on": "Escherichia coli", "assay": "microbe, parasite or virus in culture", "remark": "listed apart in the source", "description": "Antimicrobial activity against Escherichia coli expressing beta-lactamase Oxa-48 by CLSI broth microdilution method"}, "Escherichia coli [31]": {"tested_on": "Escherichia coli", "assay": "microbe, parasite or virus in culture", "remark": "listed apart in the source", "description": "Antimicrobial activity against Escherichia coli expressing beta-lactamase Oxa-51 by CLSI broth microdilution method"}, "Escherichia coli [32]": {"tested_on": "Escherichia coli", "assay": "microbe, parasite or virus in culture", "remark": "listed apart in the source", "description": "Antimicrobial activity against Escherichia coli expressing beta-lactamase Oxa-146 by CLSI broth microdilution method"}}}
{"compound": "NC[C@@H]1CN(C[C@@H]2[C@H](NC(=O)/C(=N\\OC3(C(=O)O)CC3)c3csc(N)n3)C(=O)N2S(=O)(=O)O)C(=O)O1", "note": "(stereo in doubt)", "values": [{"measurement": "MIC", "setting": "Escherichia coli [1]", "value": 32, "unit": "µg/mL"}, {"measurement": "MIC", "setting": "Escherichia coli [2]", "value": 0.125, "unit": "µg/mL"}, {"measurement": "MIC", "setting": "Escherichia coli [3]", "value": 0.25, "unit": "µg/mL"}, {"measurement": "half-life", "setting": "[4]", "value": 157, "unit": "h"}, {"measurement": "MIC90", "setting": "Enterobacteriaceae", "value": 1, "unit": "µg/mL"}, {"measurement": "MIC", "setting": "Pseudomonas aeruginosa [5]", "value": 32, "unit": "µg/mL"}, {"measurement": "MIC", "setting": "Pseudomonas aeruginosa [6]", "value": 16, "unit": "µg/mL"}, {"measurement": "MIC", "setting": "Pseudomonas aeruginosa [7]", "value": "> 64", "unit": "µg/mL"}, {"measurement": "MIC", "setting": "Escherichia coli [8]", "value": 0.125, "unit": "µg/mL"}, {"measurement": "MIC", "setting": "Escherichia coli [9]", "value": "≤ 0.06", "unit": "µg/mL"}, {"measurement": "MIC", "setting": "Escherichia coli [10]", "value": 0.125, "unit": "µg/mL"}, {"measurement": "MIC", "setting": "Escherichia coli [11]", "value": 0.06, "unit": "µg/mL"}, {"measurement": "MIC", "setting": "Escherichia coli [12]", "value": 0.125, "unit": "µg/mL"}, {"measurement": "MIC", "setting": "Escherichia coli [13]", "value": 0.125, "unit": "µg/mL"}, {"measurement": "MIC", "setting": "Escherichia coli [14]", "value": 1, "unit": "µg/mL"}, {"measurement": "MIC", "setting": "Escherichia coli [15]", "value": 1, "unit": "µg/mL"}, {"measurement": "MIC", "setting": "Escherichia coli [16]", "value": "> 64", "unit": "µg/mL"}, {"measurement": "MIC", "setting": "Escherichia coli [17]", "value": "> 32", "unit": "µg/mL"}, {"measurement": "MIC", "setting": "Escherichia coli [18]", "value": 0.25, "unit": "µg/mL"}, {"measurement": "MIC", "setting": "Escherichia coli [19]", "value": 32, "unit": "µg/mL"}, {"measurement": "MIC", "setting": "Escherichia coli [20]", "value": 32, "unit": "µg/mL"}, {"measurement": "MIC", "setting": "Escherichia coli [21]", "value": "≤ 0.06", "unit": "µg/mL"}, {"measurement": "MIC", "setting": "Escherichia coli [22]", "value": 0.03, "unit": "µg/mL"}, {"measurement": "MIC", "setting": "Escherichia coli [23]", "value": 0.06, "unit": "µg/mL"}, {"measurement": "MIC", "setting": "Escherichia coli [24]", "value": 0.06, "unit": "µg/mL"}, {"measurement": "MIC", "setting": "Escherichia coli [25]", "value": 0.125, "unit": "µg/mL"}, {"measurement": "MIC", "setting": "Escherichia coli [26]", "value": 0.25, "unit": "µg/mL"}, {"measurement": "MIC", "setting": "Escherichia coli [27]", "value": 0.125, "unit": "µg/mL"}, {"measurement": "MIC", "setting": "Escherichia coli [28]", "value": "≤ 0.06", "unit": "µg/mL"}, {"measurement": "MIC", "setting": "Escherichia coli [29]", "value": 0.5, "unit": "µg/mL"}, {"measurement": "MIC", "setting": "Escherichia coli [30]", "value": 0.06, "unit": "µg/mL"}, {"measurement": "MIC", "setting": "Escherichia coli [31]", "value": "≤ 0.06", "unit": "µg/mL"}, {"measurement": "MIC", "setting": "Escherichia coli [32]", "value": 2, "unit": "µg/mL"}]}
{"compound": "N=C(N)NCc1cn(C[C@@H]2[C@H](NC(=O)/C(=N\\OC3(C(=O)O)CC3)c3csc(N)n3)C(=O)N2S(=O)(=O)O)nn1", "note": "(stereo in doubt)", "values": [{"measurement": "MIC", "setting": "Escherichia coli [1]", "value": 16, "unit": "µg/mL"}, {"measurement": "MIC", "setting": "Escherichia coli [2]", "value": 0.125, "unit": "µg/mL"}, {"measurement": "MIC", "setting": "Escherichia coli [3]", "value": 0.25, "unit": "µg/mL"}, {"measurement": "half-life", "setting": "[4]", "value": 89, "unit": "h"}, {"measurement": "MIC90", "setting": "Enterobacteriaceae", "value": 2, "unit": "µg/mL"}, {"measurement": "MIC", "setting": "Escherichia coli [8]", "value": 0.125, "unit": "µg/mL"}, {"measurement": "MIC", "setting": "Escherichia coli [9]", "value": 0.25, "unit": "µg/mL"}, {"measurement": "MIC", "setting": "Escherichia coli [10]", "value": 0.125, "unit": "µg/mL"}, {"measurement": "MIC", "setting": "Escherichia coli [11]", "value": 0.06, "unit": "µg/mL"}, {"measurement": "MIC", "setting": "Escherichia coli [12]", "value": 0.06, "unit": "µg/mL"}, {"measurement": "MIC", "setting": "Escherichia coli [13]", "value": 0.125, "unit": "µg/mL"}, {"measurement": "MIC", "setting": "Escherichia coli [14]", "value": 2, "unit": "µg/mL"}, {"measurement": "MIC", "setting": "Escherichia coli [15]", "value": 1, "unit": "µg/mL"}, {"measurement": "MIC", "setting": "Escherichia coli [16]", "value": 32, "unit": "µg/mL"}, {"measurement": "MIC", "setting": "Escherichia coli [17]", "value": 8, "unit": "µg/mL"}, {"measurement": "MIC", "setting": "Escherichia coli [18]", "value": 0.5, "unit": "µg/mL"}, {"measurement": "MIC", "setting": "Escherichia coli [19]", "value": 8, "unit": "µg/mL"}, {"measurement": "MIC", "setting": "Escherichia coli [20]", "value": 32, "unit": "µg/mL"}, {"measurement": "MIC", "setting": "Escherichia coli [21]", "value": 0.25, "unit": "µg/mL"}, {"measurement": "MIC", "setting": "Escherichia coli [22]", "value": 0.03, "unit": "µg/mL"}, {"measurement": "MIC", "setting": "Escherichia coli [23]", "value": 0.125, "unit": "µg/mL"}, {"measurement": "MIC", "setting": "Escherichia coli [24]", "value": 0.125, "unit": "µg/mL"}, {"measurement": "MIC", "setting": "Escherichia coli [25]", "value": 0.125, "unit": "µg/mL"}, {"measurement": "MIC", "setting": "Escherichia coli [26]", "value": 4, "unit": "µg/mL"}, {"measurement": "MIC", "setting": "Escherichia coli [27]", "value": 0.25, "unit": "µg/mL"}, {"measurement": "MIC", "setting": "Escherichia coli [28]", "value": 0.5, "unit": "µg/mL"}, {"measurement": "MIC", "setting": "Escherichia coli [29]", "value": 1, "unit": "µg/mL"}, {"measurement": "MIC", "setting": "Escherichia coli [30]", "value": 0.125, "unit": "µg/mL"}, {"measurement": "MIC", "setting": "Escherichia coli [31]", "value": 0.25, "unit": "µg/mL"}, {"measurement": "MIC", "setting": "Escherichia coli [32]", "value": 1, "unit": "µg/mL"}]}
